# Results reported in patent publication KR20210056931A, “피리메타민을 유효성분으로 포함하는 면역 관련 질환의 치료 또는 예방용 약학 조성물” (priority 2019, dated 2021).
# What was measured:
# [1] = tested on: TNF-α; assay: TNF-α expression inhibition in Raw264.7 by treatment time, Experiment 1-2; assay type: cell-based; conditions: LPS 100 ng/ml
# [2] = tested on: TNF-α; assay: TNF-α expression inhibition in Raw264.7, comparison with DMARDs, Experiment 2-1; assay type: cell-based; conditions: for TNF-α expression: 6 h pretreatment, LPS 10 ng/mL, MTX 344 nM, HCQ 610 nM, PYR 50 ng/mL, CsA 391 ng/mL, AZA 25 ng/mL, SFZ 750 ng/mL
# [3] = tested on: rheumatoid arthritis model, DBA-1J Mice [류마티스 관절염 모델]; assay: Histopathological examination in rheumatoid arthritis animal model, dose regimen study, Experiment 6; assay type: in vivo, mouse; conditions: Day 14
# [4] = Hematological examination, Experiment 6-4; assay type: in vivo, mouse; conditions: for %BASO / %EOS / %LUC / %LYM / %MONO / %NEUT / %RETIC / HCT / HDW / HGB / MCH / MCV / MPV / PLT / RBC / RDW / WBC: Day 14
# [5] = tested on: TNF-α; assay: Plasma TNF-α (ELISA), Experiment 6-5; assay type: in vivo, mouse; conditions: for Plasma TNF-α: Day 14
# [6] = G3: MTX 2 mpk qd PO, G12: Py 15 mpk qd PO
smiles,measurement,setting,value
"CCc1nc(N)nc(N)c1-c1ccc(Cl)cc1 [피리메타민, Pyrimethamine]","TNF-α expression, concentration dependence","[1]; 2 or 50 ng/ml, 1 or 2 h",TNF-α의 발현량이 피리메타민의 농도 의존적으로 줄어드는
same,TNF-α expression,"[1]; PYR 2 ng/ml, 1hr",916.0 pg/mL
same,TNF-α expression,"[1]; PYR 2 ng/ml, 2hr",1101.2 pg/mL
same,TNF-α expression,"[1]; PYR 50 ng/ml, 1hr",686.4 pg/mL
same,TNF-α expression,"[1]; PYR 50 ng/ml, 2hr",889.0 pg/mL
same,TNF-α expression,[2]; 2hr,101.3 pg/mL
same,TNF-α expression,[2]; 24hr,963.4 pg/mL
same,TNF-α expression inhibition compared with comparative examples,"[2]; drug treatment 8 h or 24 h, pyrimethamine 50 ng/ml",비교예들에 비해 TNF-α의 발현량을 월등히 억제하였고
same,Efficacy by histopathology compared with hydroxychloroquine and tofacitinib (in words),[3],히드록시클로로퀸과 토파시티닙에 비해 보다 우수한 효과
same,Efficacy by histopathology compared with methotrexate (in words),[3],메토트렉세이트와 유사한 수준의 관절염 치료 효능
same,Therapeutic efficacy by histopathology (in words),[3],농도 의존적으로 치료 효능을 보였다
same,Bone destruction,[3]; G7: Py 1 mg/kg/day QD IP,2.5±0.5
same,Cartilage damage,[3]; G7: Py 1 mg/kg/day QD IP,2.2±1.0
same,"Histopathological examination, total",[3]; G7: Py 1 mg/kg/day QD IP,7.7±1.5
same,Synovium proliferation,[3]; G7: Py 1 mg/kg/day QD IP,3.0±0.0
same,Bone destruction,[3]; G8: Py 1 mg/kg/day BID PO,2.8±0.4
same,Cartilage damage,[3]; G8: Py 1 mg/kg/day BID PO,2.3±1.2
same,"Histopathological examination, total",[3]; G8: Py 1 mg/kg/day BID PO,7.8±2.4
same,Synovium proliferation,[3]; G8: Py 1 mg/kg/day BID PO,2.7±0.8
same,Bone destruction,[3]; G9: Py 1 mg/kg/day QD PO,2.5±0.8
same,Cartilage damage,[3]; G9: Py 1 mg/kg/day QD PO,2.3±0.8
same,"Histopathological examination, total",[3]; G9: Py 1 mg/kg/day QD PO,7.8±1.6
same,Synovium proliferation,[3]; G9: Py 1 mg/kg/day QD PO,3.0±0.0
same,Bone destruction,[3]; G10: Py 3 mg/kg/day BID PO,2.8±0.4
same,Cartilage damage,[3]; G10: Py 3 mg/kg/day BID PO,2.0±0.6
same,"Histopathological examination, total",[3]; G10: Py 3 mg/kg/day BID PO,7.8±0.8
same,Synovium proliferation,[3]; G10: Py 3 mg/kg/day BID PO,3.0±0.0
same,Bone destruction,[3]; G11: Py 5 mg/kg QD PO,2.0±0.9
same,Cartilage damage,[3]; G11: Py 5 mg/kg QD PO,1.7±0.8
same,"Histopathological examination, total",[3]; G11: Py 5 mg/kg QD PO,6.7±1.5
same,Synovium proliferation,[3]; G11: Py 5 mg/kg QD PO,3.0±0.0
same,Bone destruction,[3]; G12: Py 15 mg/kg/day QD PO,2.2±0.4
same,Cartilage damage,[3]; G12: Py 15 mg/kg/day QD PO,1.5±0.5
same,"Histopathological examination, total",[3]; G12: Py 15 mg/kg/day QD PO,6.3±0.8
same,Synovium proliferation,[3]; G12: Py 15 mg/kg/day QD PO,2.7±0.5
same,%BASO,[4]; [6],0.4±0.3%
same,%EOS,[4]; [6],1.5±0.4%
same,%LUC,[4]; [6],1.5±1%
same,%LYM,[4]; [6],40.4±4.1%
same,%MONO,[4]; [6],4.2±0.8%
same,%NEUT,[4]; [6],52±5.2%
same,%RETIC,[4]; [6],3.85±0.63%
same,HCT,[4]; [6],46±2.5%
same,HDW,[4]; [6],2.15 ± 0.13 g/dL
same,HGB,[4]; [6],12.6 ± 0.7 g/dL
same,MCH,[4]; [6],13.1 ± 0.4 pg
same,MCV,[4]; [6],47.8 ± 1.5 fL
same,MPV,[4]; [6],6.3 ± 0.1 fL
same,PLT,[4]; [6],1211±176 10^3 cell/μL
same,RBC,[4]; [6],9.63±0.75 10^6 cell/μL
same,RDW,[4]; [6],24.2±2.2%
same,WBC,[4]; [6],3.58±1.19 10^3 cell/μL
same,%BASO,[4]; G7: Py 1 mpk qd IP,0.8±0.1%
same,%EOS,[4]; G7: Py 1 mpk qd IP,1.2±0.2%
same,%LUC,[4]; G7: Py 1 mpk qd IP,2.8±1.3%
same,%LYM,[4]; G7: Py 1 mpk qd IP,49.2±3.5%
same,%MONO,[4]; G7: Py 1 mpk qd IP,6.1±2.1%
same,%NEUT,[4]; G7: Py 1 mpk qd IP,40±3.5%
same,%RETIC,[4]; G7: Py 1 mpk qd IP,5.1±0.9%
same,HCT,[4]; G7: Py 1 mpk qd IP,43.6±3.2%
same,HDW,[4]; G7: Py 1 mpk qd IP,2.33 ± 0.15 g/dL
same,HGB,[4]; G7: Py 1 mpk qd IP,11.9 ± 0.7 g/dL
same,MCH,[4]; G7: Py 1 mpk qd IP,12.3 ± 0.2 pg
same,MCV,[4]; G7: Py 1 mpk qd IP,45.1 ± 0.8 fL
same,MPV,[4]; G7: Py 1 mpk qd IP,7.5 ± 0.6 fL
same,PLT,[4]; G7: Py 1 mpk qd IP,403±182 10^3 cell/μL
same,RBC,[4]; G7: Py 1 mpk qd IP,9.68±0.63 10^6 cell/μL
same,RDW,[4]; G7: Py 1 mpk qd IP,22±2.8%
same,WBC,[4]; G7: Py 1 mpk qd IP,5.4±2.01 10^3 cell/μL
same,%BASO,[4]; G8: Py 1 mpk qd PO,0.6±0.2%
same,%EOS,[4]; G8: Py 1 mpk qd PO,1.6±0.5%
same,%LUC,[4]; G8: Py 1 mpk qd PO,2±0.8%
same,%LYM,[4]; G8: Py 1 mpk qd PO,45±8.1%
same,%MONO,[4]; G8: Py 1 mpk qd PO,4.7±1.2%
same,%NEUT,[4]; G8: Py 1 mpk qd PO,46.3±9.0%
same,%RETIC,[4]; G8: Py 1 mpk qd PO,6.74±3.63%
same,HCT,[4]; G8: Py 1 mpk qd PO,44.8±2.5%
same,HDW,[4]; G8: Py 1 mpk qd PO,2.31 ± 0.25 g/dL
same,HGB,[4]; G8: Py 1 mpk qd PO,12.3 ± 0.6 g/dL
same,MCH,[4]; G8: Py 1 mpk qd PO,12.6 ± 0.4 pg
same,MCV,[4]; G8: Py 1 mpk qd PO,45.6 ± 0.9 fL
same,MPV,[4]; G8: Py 1 mpk qd PO,6.3 ± 0.1 fL
same,PLT,[4]; G8: Py 1 mpk qd PO,1380±72 10^3 cell/μL
same,RBC,[4]; G8: Py 1 mpk qd PO,9.82±0.67 10^6 cell/μL
same,RDW,[4]; G8: Py 1 mpk qd PO,21.5±3%
same,WBC,[4]; G8: Py 1 mpk qd PO,2.67±0.58 10^3 cell/μL
same,Hematotoxicity (in words),"[4]; G7, intraperitoneal injection",혈소판 수치가 감소하는 독성이 나타났다
same,Hematotoxicity (in words),[4]; oral groups G8-G12,혈액 독성이 나타나지 않음
same,Plasma TNF-α,[5]; G7: Py 1 mg/kg/day QD IP,879.4 pg/mL
same,Plasma TNF-α,[5]; G8: Py 1 mg/kg/day BID PO,867.2 pg/mL
same,Plasma TNF-α,[5]; G9: Py 1 mg/kg/day QD PO,863.5 pg/mL
same,Plasma TNF-α,[5]; G10: Py 3 mg/kg/day BID PO,818.8 pg/mL
same,Plasma TNF-α,[5]; G11: Py 5 mg/kg QD PO,763.7 pg/mL
same,Plasma TNF-α,[5]; G12: Py 15 mg/kg/day QD PO,728.0 pg/mL
same,Plasma TNF-α (in words),[5]; pyrimethamine oral groups,농도 의존적으로 혈장 TNF-α 수치가 감소
